Measured values as given in PubChem BioAssay (NCI).
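These data come from cells grown in 96-well plates and exposed to compound for 48 hours at five concentrations. TGI marks complete inhibition of growth.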

Legend:
Experiment in all cases: NCI tumour cell line growth inhibition, 48 h
DU-145 prostate = test system: DU-145 prostate
MDA-N = test system: MDA-N
NCI/ADR-RES ovarian = test system: NCI/ADR-RES ovarian
IGROV1 ovarian = test system: IGROV1 ovarian
HS 578T breast = test system: HS 578T breast
HT29 colon = test system: HT29 colon
NCI-H522 lung = test system: NCI-H522 lung
A498 renal = test system: A498 renal
HOP-62 NSCLC = test system: HOP-62 NSCLC
MDA-MB-231 breast = test system: MDA-MB-231 breast
SK-MEL-2 melanoma = test system: SK-MEL-2 melanoma
SK-MEL-5 melanoma = test system: SK-MEL-5 melanoma
NCI-H460 lung = test system: NCI-H460 lung
SNB-19 CNS = test system: SNB-19 CNS
HCC-2998 colon = test system: HCC-2998 colon
MOLT-4 leukemia = test system: MOLT-4 leukemia
SF-539 CNS = test system: SF-539 CNS
SF-295 CNS = test system: SF-295 CNS
NCI-H23 lung = test system: NCI-H23 lung
RXF 393 renal = test system: RXF 393 renal
SR leukemia = test system: SR leukemia
HL-60(TB) leukemia = test system: HL-60(TB) leukemia
SNB-75 CNS = test system: SNB-75 CNS
LOX IMVI melanoma = test system: LOX IMVI melanoma
COLO 205 colon = test system: COLO 205 colon
U251 CNS = test system: U251 CNS
MCF7 breast = test system: MCF7 breast
ACHN renal = test system: ACHN renal
OVCAR-4 ovarian = test system: OVCAR-4 ovarian
PC-3 prostate = test system: PC-3 prostate
CAKI-1 renal = test system: CAKI-1 renal
SN12C renal = test system: SN12C renal
UO-31 renal = test system: UO-31 renal
UACC-257 melanoma = test system: UACC-257 melanoma
UACC-62 melanoma = test system: UACC-62 melanoma
HOP-92 NSCLC = test system: HOP-92 NSCLC
SK-MEL-28 melanoma = test system: SK-MEL-28 melanoma
MDA-MB-435 = test system: MDA-MB-435
HCT-15 colon = test system: HCT-15 colon
A549 NSCLC = test system: A549 NSCLC
EKVX NSCLC = test system: EKVX NSCLC
786-0 renal = test system: 786-0 renal
KM12 colon = test system: KM12 colon
SF-268 CNS = test system: SF-268 CNS
SK-OV-3 ovarian = test system: SK-OV-3 ovarian
NCI-H226 lung = test system: NCI-H226 lung
OVCAR-8 ovarian = test system: OVCAR-8 ovarian
OVCAR-3 ovarian = test system: OVCAR-3 ovarian
M14 melanoma = test system: M14 melanoma
K-562 leukemia = test system: K-562 leukemia
MALME-3M melanoma = test system: MALME-3M melanoma
TK-10 renal = test system: TK-10 renal
RPMI-8226 leukemia = test system: RPMI-8226 leukemia
OVCAR-5 ovarian = test system: OVCAR-5 ovarian
HCT-116 colon = test system: HCT-116 colon
SW-620 colon = test system: SW-620 colon
T-47D breast = test system: T-47D breast
BT-549 breast = test system: BT-549 breast
CCRF-CEM leukemia = test system: CCRF-CEM leukemia

CC1CC(C)CN(S(=O)(=O)c2cc(Cl)c(Oc3ccc([N+](=O)[O-])cc3Cl)c(Cl)c2)C1 (centres undefined)
TGI (DU-145 prostate): > 100 µM
TGI (MDA-N): > 100 µM
TGI (NCI/ADR-RES ovarian): > 100 µM
TGI (IGROV1 ovarian): > 100 µM
TGI (HS 578T breast): > 100 µM
TGI (HT29 colon): > 100 µM
TGI (NCI-H522 lung): > 100 µM
TGI (A498 renal): > 100 µM
TGI (HOP-62 NSCLC): > 100 µM
TGI (MDA-MB-231 breast): > 100 µM
TGI (SK-MEL-2 melanoma): > 100 µM
TGI (SK-MEL-5 melanoma): > 100 µM
TGI (NCI-H460 lung): > 100 µM
TGI (SNB-19 CNS): > 100 µM
TGI (HCC-2998 colon): > 100 µM
TGI (MOLT-4 leukemia): > 100 µM
TGI (SF-539 CNS): > 100 µM
TGI (SF-295 CNS): > 100 µM
TGI (NCI-H23 lung): > 100 µM
TGI (RXF 393 renal): > 100 µM
TGI (SR leukemia): > 100 µM
TGI (HL-60(TB) leukemia): > 100 µM
TGI (SNB-75 CNS): > 100 µM
TGI (LOX IMVI melanoma): > 100 µM
TGI (COLO 205 colon): > 100 µM
TGI (U251 CNS): > 100 µM
TGI (MCF7 breast): > 100 µM
TGI (ACHN renal): > 100 µM
TGI (OVCAR-4 ovarian): > 100 µM
TGI (PC-3 prostate): > 100 µM
TGI (CAKI-1 renal): > 100 µM
TGI (SN12C renal): > 100 µM
TGI (UO-31 renal): > 100 µM
TGI (UACC-257 melanoma): > 100 µM
TGI (UACC-62 melanoma): > 100 µM
TGI (HOP-92 NSCLC): > 100 µM
TGI (SK-MEL-28 melanoma): > 100 µM
TGI (MDA-MB-435): > 100 µM
TGI (HCT-15 colon): > 100 µM
TGI (A549 NSCLC): > 100 µM
TGI (EKVX NSCLC): > 100 µM
TGI (786-0 renal): > 100 µM
TGI (KM12 colon): > 100 µM
TGI (SF-268 CNS): > 100 µM
TGI (SK-OV-3 ovarian): > 100 µM
TGI (NCI-H226 lung): > 100 µM
TGI (OVCAR-8 ovarian): > 100 µM
TGI (OVCAR-3 ovarian): > 100 µM
TGI (M14 melanoma): > 100 µM
TGI (K-562 leukemia): > 100 µM
TGI (MALME-3M melanoma): > 100 µM
TGI (TK-10 renal): > 100 µM
TGI (RPMI-8226 leukemia): > 100 µM
TGI (OVCAR-5 ovarian): > 100 µM
TGI (HCT-116 colon): > 100 µM
TGI (SW-620 colon): > 100 µM
TGI (T-47D breast): > 100 µM
TGI (BT-549 breast): > 100 µM

CNN1C(=O)c2c(N)c(C#N)c(-c3ccccc3)c(-c3ccccc3)c2C1=O
TGI (DU-145 prostate): > 100 µM
TGI (MDA-N): > 100 µM
TGI (NCI/ADR-RES ovarian): > 100 µM
TGI (IGROV1 ovarian): > 100 µM
TGI (HS 578T breast): > 100 µM
TGI (NCI-H522 lung): > 100 µM
TGI (A498 renal): > 100 µM
TGI (MDA-MB-231 breast): > 100 µM
TGI (SK-MEL-2 melanoma): > 100 µM
TGI (SK-MEL-5 melanoma): > 100 µM
TGI (NCI-H460 lung): > 100 µM
TGI (SNB-19 CNS): > 100 µM
TGI (HCC-2998 colon): > 100 µM
TGI (MOLT-4 leukemia): > 100 µM
TGI (SF-539 CNS): > 100 µM
TGI (SF-295 CNS): > 100 µM
TGI (RXF 393 renal): > 100 µM
TGI (SR leukemia): > 100 µM
TGI (HL-60(TB) leukemia): > 100 µM
TGI (SNB-75 CNS): > 100 µM
TGI (LOX IMVI melanoma): > 100 µM
TGI (CCRF-CEM leukemia): > 100 µM
TGI (COLO 205 colon): > 100 µM
TGI (U251 CNS): > 100 µM
TGI (MCF7 breast): > 100 µM
TGI (ACHN renal): > 100 µM
TGI (OVCAR-4 ovarian): > 100 µM
TGI (PC-3 prostate): > 100 µM
TGI (CAKI-1 renal): > 100 µM
TGI (SN12C renal): > 100 µM
TGI (UO-31 renal): > 100 µM
TGI (UACC-257 melanoma): > 100 µM
TGI (UACC-62 melanoma): > 100 µM
TGI (HOP-92 NSCLC): > 100 µM
TGI (SK-MEL-28 melanoma): > 100 µM
TGI (MDA-MB-435): > 100 µM
TGI (HCT-15 colon): > 100 µM
TGI (A549 NSCLC): > 100 µM
TGI (EKVX NSCLC): > 100 µM
TGI (786-0 renal): > 100 µM
TGI (KM12 colon): > 100 µM
TGI (SF-268 CNS): > 100 µM
TGI (NCI-H226 lung): > 100 µM
TGI (OVCAR-8 ovarian): > 100 µM
TGI (OVCAR-3 ovarian): > 100 µM
TGI (M14 melanoma): > 100 µM
TGI (K-562 leukemia): > 100 µM
TGI (MALME-3M melanoma): > 100 µM
TGI (TK-10 renal): > 100 µM
TGI (RPMI-8226 leukemia): > 100 µM
TGI (OVCAR-5 ovarian): > 100 µM
TGI (HCT-116 colon): > 100 µM
TGI (SW-620 colon): > 100 µM
TGI (T-47D breast): > 100 µM
TGI (BT-549 breast): > 100 µM

NC(=O)NC(=O)c1cccc(NC(=O)CI)c1
TGI (DU-145 prostate): 0.103 µM
TGI (MDA-N): 0.0253 µM
TGI (NCI/ADR-RES ovarian): 5.32 µM
TGI (IGROV1 ovarian): 0.796 µM
TGI (HS 578T breast): 0.146 µM
TGI (HT29 colon): 0.0607 µM
TGI (NCI-H522 lung): < 0.01 µM
TGI (A498 renal): 0.805 µM
TGI (HOP-62 NSCLC): 1.16 µM
TGI (MDA-MB-231 breast): 0.866 µM
TGI (SK-MEL-2 melanoma): 0.837 µM
TGI (SK-MEL-5 melanoma): 0.0382 µM
TGI (NCI-H460 lung): 0.286 µM
TGI (SNB-19 CNS): 14.7 µM
TGI (HCC-2998 colon): 0.609 µM
TGI (SF-539 CNS): 0.0701 µM
TGI (SF-295 CNS): 2.68 µM
TGI (NCI-H23 lung): 2.04 µM
TGI (RXF 393 renal): 2.13 µM
TGI (SR leukemia): 0.416 µM
TGI (HL-60(TB) leukemia): < 0.01 µM
TGI (SNB-75 CNS): 1.75 µM
TGI (LOX IMVI melanoma): 0.395 µM
TGI (CCRF-CEM leukemia): 0.145 µM
TGI (COLO 205 colon): < 0.01 µM
TGI (U251 CNS): 0.136 µM
TGI (MCF7 breast): 1.56 µM
TGI (ACHN renal): 1.58 µM
TGI (OVCAR-4 ovarian): 5.08 µM
TGI (PC-3 prostate): 1.35 µM
TGI (CAKI-1 renal): 0.662 µM
TGI (SN12C renal): 0.326 µM
TGI (UO-31 renal): 1.44 µM
TGI (UACC-257 melanoma): 0.438 µM
TGI (UACC-62 melanoma): 0.692 µM
TGI (HOP-92 NSCLC): 1.58 µM
TGI (SK-MEL-28 melanoma): 7.49 µM
TGI (MDA-MB-435): 0.202 µM
TGI (HCT-15 colon): 2.06 µM
TGI (A549 NSCLC): 12.4 µM
TGI (EKVX NSCLC): 10.4 µM
TGI (KM12 colon): 18.5 µM
TGI (SF-268 CNS): 0.0717 µM
TGI (SK-OV-3 ovarian): 1.06 µM
TGI (NCI-H226 lung): 0.201 µM
TGI (OVCAR-8 ovarian): 0.188 µM
TGI (OVCAR-3 ovarian): < 0.01 µM
TGI (M14 melanoma): 0.408 µM
TGI (K-562 leukemia): 1.45 µM
TGI (MALME-3M melanoma): 0.899 µM
TGI (RPMI-8226 leukemia): 0.312 µM
TGI (OVCAR-5 ovarian): 2.12 µM
TGI (HCT-116 colon): 0.106 µM
TGI (SW-620 colon): 2.03 µM
TGI (T-47D breast): 4.3 µM
TGI (BT-549 breast): 2.44 µM
